This is an account of results in ChEMBL document CHEMBL1201862, “PubChem BioAssay data set” (2004).

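Tested at 5 concentrations; 48 h exposure; 96-well plates; endpoints linearly interpolated, else capped at highest concentration. At the GI50, growth is halved.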 Activity calls are given as the source filed them. Cut-off read from the data, not from the text of the source: active = GI50 up to about 1.1 µM and inactive = higher.

Common to all, as to experiment: growth of human tumour cells (NCI), 48 h
Experiment [1] relates to MOLT-4.
For experiment [2], the system named is MCF7.
Experiment [3] has as its system M19-MEL.
Experiment [4] relates to HCT-15.
The subject of experiment [5] is PC-3.
Experiment [6] concerns SK-MEL-5.
The subject of experiment [7] is Malme-3M.
Experiment [8] relates to UACC-62.
For experiment [9], the system named is RXF 393.
The test system of experiment [10] is NCI-H23.
Experiment [11] has as its system Hs-578T.
In experiment [12] the test system is SF-539.
The test system of experiment [13] is SK-MEL-2.
The subject of experiment [14] is NCI-H226.
The test system of experiment [15] is NCI/ADR-RES.
The subject of experiment [16] is HOP-62.
The test system of experiment [17] is NCI-H460.
The subject of experiment [18] is BT-549.
In experiment [19] the test system is CCRF-CEM.
The subject of experiment [20] is MDA-N.

As to `CN1CCN(Cc2nc3cccc4c3c([n+]2[O-])-c2ccccc2-4)CC1`, the GI50 in experiment [1] was 12400 nM (inactive); in experiment [2], 12800 nM (inactive); in experiment [3], 34000 nM (inactive); in [4], 29000 nM; in [5], 11400 nM (inactive); in experiment [6], 19100 nM (inactive). Further, the GI50 is 20100 nM (inactive) in experiment [7]; 24900 nM (inactive) in experiment [8]; 10800 nM (inactive) in [9]; 26800 nM (inactive) in [10]; 34900 nM (inactive) in [11]; 25400 nM (inactive) in experiment [12]. Further, the GI50 was 23100 nM (inactive) in experiment [13]; 26800 nM (inactive) in [14]; 10600 nM (inactive) in experiment [15]; 30000 nM (inactive) in experiment [16]; 17800 nM (inactive) in [17]; 39000 nM (inactive) in experiment [18]. The GI50 in experiment [19] is 25900 nM (inactive); in experiment [20], 12600 nM (inactive).
With `COC(=O)[C@@H]1c2cc3c(c(O)c2[C@@H](OC2OC(C)C(OC)C(C)(OC)C2OC)C[C@]1(C)O)C(=O)c1c(O)cc2c(c1C3=O)O[C@H]1O[C@]2(C)[C@H](O)[C@@H](N(C)C)[C@@H]1O` (stereo partly drawn), the GI50 was 14.6 nM (active) in [1]; 33 nM (active) in [2]; 0.973 nM (active) in [3]; 247 nM in experiment [4]; 46.8 nM (active) in experiment [5]; 8.49 nM (active) in experiment [6]. For the same molecule, the GI50 was 4.53 nM (active) in experiment [7]; 3.86 nM (active) in experiment [8]; 13.2 nM (active) in [9]; 5.81 nM (active) in experiment [10]; 20.3 nM (active) in experiment [11]; 24.6 nM (active) in experiment [12]. Also, the GI50 in experiment [13] was 3.37 nM (active); in experiment [14], 4.27 nM (active); in experiment [15], 299 nM (active); in [16], 35.9 nM (active); in [17] it was 3.77 nM (active); in experiment [18], 19.7 nM (active). The GI50 is 11.4 nM (active) in experiment [19] and 47.1 nM (active) in [20].
On to `COc1cc2cnc3c4cc(OCc5ccccc5)ccc4ccc3c2cc1OC`, for which the GI50 was 5060 nM (inactive) in [1]; 27400 nM (inactive) in experiment [3]; 70100 nM in experiment [4]; 17400 nM (inactive) in [6]; 36300 nM (inactive) in [7]; 39500 nM (inactive) in [8]. The GI50 was 12000 nM (inactive) in [9]; 25200 nM (inactive) in experiment [10]; 34000 nM (inactive) in [12]; 18800 nM (inactive) in experiment [13]; 25800 nM (inactive) in [14]; 18900 nM (inactive) in experiment [16]. Also, the figures for the GI50 in experiment [17] and in [19] were 19000 nM (inactive) and 2810 nM (inactive), respectively.
As for `CC(=O)[O-].[Zn+].c1ccc(/C(=N\Nc2ccccn2)c2ccccn2)cc1`, the GI50 was 0.773 nM (active) in experiment [1]; 0.912 nM (active) in experiment [2]; 394 nM (active) in experiment [3]; 13.7 nM in [4]; 30 nM (active) in experiment [5]; 68.4 nM (active) in experiment [6]. Further, the GI50 in experiment [7] was 124 nM (active); in experiment [8] it was 182 nM (active); in [9], 300 nM (active); in [10], 15.5 nM (active); in experiment [11], 931 nM (active); in [12], 337 nM (active). Besides, the GI50 is 1330 nM (inactive) in experiment [13]; 92.9 nM (active) in [14]; 30.3 nM (active) in experiment [15]; 269 nM (active) in experiment [16]; 310 nM (active) in experiment [17]; 2.77 nM (active) in [19]. In experiment [20], the GI50 was 426 nM (active).
